Measurements published in PubChem BioAssay (NCI).
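Five concentrations, 48 hours, 96-well plates. The concentration for 50% growth inhibition is given as GI50. TGI is the concentration that stops growth completely.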

Experiments:
Assay in all cases: inhibition of tumour cell growth, NCI panel, 48 h
SF-268 CNS = system: SF-268 CNS
SF-539 CNS = system: SF-539 CNS
IGROV1 ovarian = system: IGROV1 ovarian
SN12C renal = system: SN12C renal
RPMI-8226 leukemia = system: RPMI-8226 leukemia
A498 renal = system: A498 renal
EKVX NSCLC = system: EKVX NSCLC
MOLT-4 leukemia = system: MOLT-4 leukemia
HOP-92 NSCLC = system: HOP-92 NSCLC
UO-31 renal = system: UO-31 renal
KM20L2 colon = system: KM20L2 colon
DLD-1 colon = system: DLD-1 colon
SW-620 colon = system: SW-620 colon
HCT-15 colon = system: HCT-15 colon
NCI-H522 lung = system: NCI-H522 lung
786-0 renal = system: 786-0 renal
OVCAR-4 ovarian = system: OVCAR-4 ovarian
NCI-H460 lung = system: NCI-H460 lung
K-562 leukemia = system: K-562 leukemia
HT29 colon = system: HT29 colon
RXF 393 renal = system: RXF 393 renal
LXFL 529 NSCLC = system: LXFL 529 NSCLC
TK-10 renal = system: TK-10 renal
OVCAR-8 ovarian = system: OVCAR-8 ovarian
A549 NSCLC = system: A549 NSCLC
XF 498 CNS = system: XF 498 CNS
UACC-257 melanoma = system: UACC-257 melanoma
DMS 114 small cell lung = system: DMS 114 small cell lung
ACHN renal = system: ACHN renal
COLO 205 colon = system: COLO 205 colon
NCI-H23 lung = system: NCI-H23 lung
MALME-3M melanoma = system: MALME-3M melanoma
M19-MEL melanoma = system: M19-MEL melanoma
KM12 colon = system: KM12 colon
LOX IMVI melanoma = system: LOX IMVI melanoma
SNB-78 CNS = system: SNB-78 CNS
SK-MEL-28 melanoma = system: SK-MEL-28 melanoma
HOP-62 NSCLC = system: HOP-62 NSCLC
OVCAR-3 ovarian = system: OVCAR-3 ovarian
SR leukemia = system: SR leukemia
NCI-H226 lung = system: NCI-H226 lung
SK-MEL-2 melanoma = system: SK-MEL-2 melanoma
SF-295 CNS = system: SF-295 CNS
HCC-2998 colon = system: HCC-2998 colon
HCT-116 colon = system: HCT-116 colon
HL-60(TB) leukemia = system: HL-60(TB) leukemia
SNB-19 CNS = system: SNB-19 CNS
SNB-75 CNS = system: SNB-75 CNS
U251 CNS = system: U251 CNS
HS 578T breast = system: HS 578T breast
CCRF-CEM leukemia = system: CCRF-CEM leukemia
M14 melanoma = system: M14 melanoma
MDA-N = system: MDA-N
MDA-MB-435 = system: MDA-MB-435
DU-145 prostate = system: DU-145 prostate
OVCAR-5 ovarian = system: OVCAR-5 ovarian
SK-OV-3 ovarian = system: SK-OV-3 ovarian
CAKI-1 renal = system: CAKI-1 renal
UACC-62 melanoma = system: UACC-62 melanoma
MDA-MB-231 breast = system: MDA-MB-231 breast
BT-549 breast = system: BT-549 breast
MCF7 breast = system: MCF7 breast
SK-MEL-5 melanoma = system: SK-MEL-5 melanoma
NCI/ADR-RES ovarian = system: NCI/ADR-RES ovarian
T-47D breast = system: T-47D breast
PC-3 prostate = system: PC-3 prostate

In the case of `Clc1ccc(N=Nc2nc3ccccc3nc2N=Nc2ccc(Cl)cc2Cl)c(Cl)c1`, the TGI (SF-268 CNS) was greater than 100 µM, the TGI (SF-539 CNS) was greater than 100 µM and the TGI (IGROV1 ovarian) was greater than 100 µM. It also gave a TGI (SN12C renal) greater than 100 µM, a TGI (RPMI-8226 leukemia) greater than 100 µM and a TGI (A498 renal) greater than 100 µM. For the same compound, the TGI (EKVX NSCLC) was greater than 100 µM, the TGI (MOLT-4 leukemia) was greater than 100 µM and the TGI (HOP-92 NSCLC) was greater than 100 µM. The TGI (UO-31 renal) was greater than 100 µM, the TGI (KM20L2 colon) was greater than 100 µM and the TGI (DLD-1 colon) was greater than 100 µM. It also gave a TGI (SW-620 colon) greater than 100 µM, a TGI (HCT-15 colon) greater than 100 µM and a TGI (NCI-H522 lung) greater than 100 µM. The TGI (786-0 renal) was greater than 100 µM, the TGI (OVCAR-4 ovarian) was greater than 100 µM and the TGI (NCI-H460 lung) was greater than 100 µM. For the same compound, the TGI (K-562 leukemia) was greater than 100 µM, the TGI (HT29 colon) was greater than 100 µM and the TGI (RXF 393 renal) was greater than 100 µM. The TGI (LXFL 529 NSCLC) was greater than 100 µM, the TGI (TK-10 renal) was greater than 100 µM and the TGI (OVCAR-8 ovarian) was greater than 100 µM. For the same compound, the TGI (A549 NSCLC) was greater than 100 µM, the TGI (XF 498 CNS) was greater than 100 µM and the TGI (UACC-257 melanoma) was greater than 100 µM. It also gave a TGI (DMS 114 small cell lung) greater than 100 µM, a TGI (ACHN renal) greater than 100 µM and a TGI (COLO 205 colon) greater than 100 µM. For the same compound, the TGI (NCI-H23 lung) was greater than 100 µM, the TGI (MALME-3M melanoma) was greater than 100 µM and the TGI (M19-MEL melanoma) was greater than 100 µM. The TGI (KM12 colon) was greater than 100 µM, the TGI (LOX IMVI melanoma) was greater than 100 µM and the TGI (SNB-78 CNS) was greater than 100 µM. It also gave a TGI (SK-MEL-28 melanoma) greater than 100 µM, a TGI (HOP-62 NSCLC) greater than 100 µM and a TGI (OVCAR-3 ovarian) greater than 100 µM. It also gave a TGI (SR leukemia) greater than 100 µM, a TGI (NCI-H226 lung) greater than 100 µM and a TGI (SK-MEL-2 melanoma) greater than 100 µM. The TGI (SF-295 CNS) was greater than 100 µM, the TGI (HCC-2998 colon) was greater than 100 µM and the TGI (HCT-116 colon) was greater than 100 µM. For the same compound, the TGI (HL-60(TB) leukemia) was 90 µM, the TGI (SNB-19 CNS) was greater than 100 µM and the TGI (SNB-75 CNS) was 93.4 µM. For the same compound, the TGI (U251 CNS) was greater than 100 µM.

Compound `COc1ccc(C2CC(C)(O)Oc3cc4c(cc32)OCO4)cc1` (centres undefined) has a TGI (HS 578T breast) of 97.9 µM, a TGI (CCRF-CEM leukemia) greater than 82.8 µM and a TGI (M14 melanoma) greater than 87.8 µM. It also gave a TGI (SF-268 CNS) greater than 100 µM, a TGI (SF-539 CNS) greater than 100 µM and a TGI (IGROV1 ovarian) greater than 100 µM. For the same compound, the TGI (SN12C renal) was greater than 100 µM, the TGI (RPMI-8226 leukemia) was greater than 100 µM and the TGI (A498 renal) was greater than 91.6 µM. For the same compound, the TGI (EKVX NSCLC) was greater than 100 µM, the TGI (MOLT-4 leukemia) was 88.6 µM and the TGI (HOP-92 NSCLC) was 69.5 µM. It also gave a TGI (UO-31 renal) greater than 100 µM, a TGI (SW-620 colon) greater than 100 µM and a TGI (HCT-15 colon) greater than 100 µM. The TGI (MDA-N) was 36.4 µM, the TGI (NCI-H522 lung) was 44.6 µM and the TGI (786-0 renal) was greater than 100 µM. For the same compound, the TGI (OVCAR-4 ovarian) was greater than 100 µM, the TGI (MDA-MB-435) was 42.9 µM and the TGI (NCI-H460 lung) was greater than 100 µM. The TGI (DU-145 prostate) was greater than 100 µM, the TGI (K-562 leukemia) was 98.7 µM and the TGI (HT29 colon) was greater than 82.6 µM. The TGI (RXF 393 renal) was greater than 39 µM, the TGI (OVCAR-5 ovarian) was greater than 100 µM and the GI50 (SK-OV-3 ovarian) was 43.2 µM. For the same compound, the TGI (SK-OV-3 ovarian) was greater than 100 µM, the TGI (TK-10 renal) was greater than 100 µM and the TGI (OVCAR-8 ovarian) was greater than 100 µM. For the same compound, the TGI (A549 NSCLC) was greater than 100 µM, the TGI (CAKI-1 renal) was greater than 100 µM and the TGI (UACC-257 melanoma) was greater than 100 µM. For the same compound, the TGI (ACHN renal) was greater than 100 µM, the TGI (UACC-62 melanoma) was greater than 100 µM and the TGI (COLO 205 colon) was 46 µM. For the same compound, the TGI (MDA-MB-231 breast) was greater than 100 µM, the TGI (BT-549 breast) was greater than 88 µM and the TGI (MCF7 breast) was greater than 100 µM. For the same compound, the TGI (NCI-H23 lung) was greater than 100 µM, the TGI (MALME-3M melanoma) was greater than 100 µM and the TGI (SK-MEL-5 melanoma) was 69 µM. For the same compound, the TGI (KM12 colon) was greater than 100 µM, the TGI (LOX IMVI melanoma) was greater than 100 µM and the TGI (NCI/ADR-RES ovarian) was greater than 78.2 µM. The TGI (SK-MEL-28 melanoma) was greater than 100 µM, the TGI (HOP-62 NSCLC) was greater than 100 µM and the TGI (T-47D breast) was greater than 50.5 µM. The TGI (PC-3 prostate) was greater than 81.1 µM, the TGI (OVCAR-3 ovarian) was greater than 100 µM and the TGI (SR leukemia) was greater than 78.9 µM. For the same compound, the TGI (NCI-H226 lung) was greater than 100 µM, the TGI (SK-MEL-2 melanoma) was 75.2 µM and the TGI (SF-295 CNS) was greater than 100 µM. The TGI (HCC-2998 colon) was greater than 100 µM, the TGI (HCT-116 colon) was greater than 100 µM and the TGI (HL-60(TB) leukemia) was 68.4 µM. For the same compound, the TGI (SNB-19 CNS) was greater than 100 µM, the TGI (SNB-75 CNS) was greater than 100 µM and the TGI (U251 CNS) was greater than 100 µM.
